According to patent US8007526B2, “Difunctionalized aromatic compounds and polymers therefrom” (Bezwada Biomedical, LLC, priority 2005, dated 2011):

Assay: In vitro hydrolysis in Aldrich buffer at 100° C., monitored by TLC for disappearance of starting material
Type: physicochemical
Excerpt: In Vitro Hydrolysis of Functionalized Aromatics
A compound and a polymer of the present invention were examined for their rates of hydrolysis as described below.

For COC(=O)COC(=O)COc1ccc(C(=O)OCC(=O)OC)cc1 [Example 14, 4-Methoxycarbonylmethoxycarbonylmethoxy-benzoic acid methoxycarbonyl methyl ester], the “Hydrolyzed in (time to hydrolysis)” value (100 mg in 10 mL Aldrich pH 7.4 buffer) was “Hydrolyzed in 26.5 hours” and the “Hydrolyzed in (time to hydrolysis)” value (100 mg in 10 mL Aldrich pH 9 buffer, 1% solution) was “Hydrolyzed in 5 hours”.
